Measurements: patent US12280068B1 (ZYLORION HEALTH INC., priority 2023, dated 2025)

Assays:
human 5HT2A = biological target: T1, human 5HT2A (Homo sapiens, UniProt P28223); assay: AequoScreen Ca2+ release assay in CHO-K1 cells; assay type: cell-based; settings: for 5-HT2A-dependent Ca^2+ release Efficacy (% ± S.E.M.): CHO-K1 cells expressing h5HT2A
T1 construct: expressed in transfected cells
Method: Cell Culture—AequoScreen™ Chinese hamster ovary (CHO)-K1 cells stably expressing human 5HT2A or 5HT2B (h5HT2A, h5HT2B) were maintained at 37° C., 5% CO2 in F-12 DMEM containing 1 mM L-glutamine, 10% FBS, and 1% Pen/Strep.
Ca^2+ Assay—Release of Ca^2+ into the cellular cytosol upon GPCR-dependent activation of Gaq/11 was determined using the AequoScreen™ assay in CHO-K1 cells stably expressing h5HT2A or h5HT2B. […] Upon binding Ca^2+, apoaequorin becomes activated to aequorin and converts coelenterazine to coelenteramide, CO2, and light. Light production is therefore directly proportional to the release of Ca^2+ from intracellular stores upon GPCR activation. Cells were seeded into flat bottom, white bottom, white wall, poly-D-lysine coated 96-well plates (20,000 cells/well) and incubated overnight in Opti-MEM containing 1% FBS at 37° C. and 5% CO2. Following this, Opti-MEM media was removed and replaced with fresh Opti-MEM containing 5 μM coelenterazine h (Promega, Madison, WI) and 1% FBS (final volume 50 μL) and cells were incubated at 25° C. for 4 h. After these 4 h, cells were treated with 50 μL 2× concentrated ligand solutions to achieve the concentrations indicated and centrifuged at 1,000×g for 1 min at room temperature. Chemiluminescence was then immediately measured on a Cytation5 plate reader (top read, gain 200, integration time 10,000 msec).

h5HT2A = biological target: T2, h5HT2A (Homo sapiens, UniProt P28223); assay: NanoBit βarrestin2 recruitment assay in CHO-K1 cells; assay type: cell-based
T2 construct: expressed in transfected cells; host or cells: CHO-K1 cells, transient transfection with Lipofectamine 3000
T2 sequence (P28223 whole entry): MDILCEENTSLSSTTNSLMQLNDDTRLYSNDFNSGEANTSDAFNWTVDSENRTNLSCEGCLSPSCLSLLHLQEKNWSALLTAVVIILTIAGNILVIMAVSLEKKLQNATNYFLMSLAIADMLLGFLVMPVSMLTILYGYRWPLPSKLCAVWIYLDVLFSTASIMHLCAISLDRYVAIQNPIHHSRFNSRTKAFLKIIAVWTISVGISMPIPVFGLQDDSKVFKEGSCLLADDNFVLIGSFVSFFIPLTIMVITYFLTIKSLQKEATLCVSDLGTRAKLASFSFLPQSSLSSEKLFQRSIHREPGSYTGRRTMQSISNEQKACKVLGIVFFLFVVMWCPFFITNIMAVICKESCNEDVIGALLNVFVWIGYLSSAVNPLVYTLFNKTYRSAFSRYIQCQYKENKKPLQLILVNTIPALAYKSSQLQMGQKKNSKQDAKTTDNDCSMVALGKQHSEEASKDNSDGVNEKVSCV
T2 sequence (P32121 whole entry, further chain): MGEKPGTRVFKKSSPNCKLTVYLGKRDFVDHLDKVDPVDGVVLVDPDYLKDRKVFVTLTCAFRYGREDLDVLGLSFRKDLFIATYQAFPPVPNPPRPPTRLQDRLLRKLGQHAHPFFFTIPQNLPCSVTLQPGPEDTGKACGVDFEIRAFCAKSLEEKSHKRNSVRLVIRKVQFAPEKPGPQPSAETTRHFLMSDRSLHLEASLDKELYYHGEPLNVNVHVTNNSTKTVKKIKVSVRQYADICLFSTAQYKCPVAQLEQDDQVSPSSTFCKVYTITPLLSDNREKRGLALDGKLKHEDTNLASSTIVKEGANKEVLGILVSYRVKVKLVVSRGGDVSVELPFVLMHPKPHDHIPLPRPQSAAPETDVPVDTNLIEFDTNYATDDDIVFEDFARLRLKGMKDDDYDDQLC
From the text: Cell Culture—CHO-K1 cells were transfected with either NanoBit™ smBIT h5HT2A plasmids and lgBiT βarrestin2 plasmid. When h5HT2A and βarrestin2 come into contact with one another the smBiT and lgBiT peptides complement each other to produce a complete NanoBit™ luciferase enzyme. When complete, the enzyme is able to catalyze the breakdown of the molecule coelenterazine to produce light. Emitted light levels are proportional to interactions between receptor and βarrestin2. Cells were maintained at 37° C., 5% CO2 in F-12 DMEM containing 1 mM L-glutamine, 10% FBS, and 1% Pen/Strep. For transfections, CHO-K1 cells were seeded in 6-well plates (500,000 cells per well) and incubated overnight in standard media as described above. Following overnight incubation, the cells were transfected with 1 μg of both the h5HT2A and the βarr2 NanoBiT plasmids. Transfections were carried out using Lipofectamine 3000 (Fisher Scientific, Ottawa, ON), according to the manufacturer's protocol in Opti-MEM media containing 1% FBS.
βarrestin2 assay—After seeding at 20,000 cells/well in flat bottom, white bottom, white wall, poly-D-lysine coated 96-well plates, transfected CHO-K1 cells were rinsed twice with Hank's buffered salt solution (HBSS), and 100 μL of HBSS was added to each of the wells. To this, 25 μL of Nano-Glo Live Cell Substrate was added (diluted 1/20 in the Nano-Glo LCS Dilution buffer, according to the manufacturer's protocol), and the plate was transferred to a Cytation5 plate reader. […] AUC data were then used for subsequent analyses.

[1] = CHO-K1 cells, AUC of first 30 min

T1 sequence (P28223 whole entry): as the sequence (P28223 whole entry) above

Structure (SMILES) | 5-HT2A-dependent Ca^2+ release Efficacy (% ± S.E.M.) (human 5HT2A) | 5-HT2A-dependent βarrestin2 recruitment Efficacy (% ± S.E.M.) (h5HT2A; [1]) | 5-HT2A-dependent βarrestin2 recruitment Potency (nM) (h5HT2A; [1]) | 5-HT2A Ca^2+ release activity (in words) (human 5HT2A) | 5-HT2A βarrestin2 recruitment activity (in words) (h5HT2A)
CCN(CC)C(=O)[C@@H]1C=C2c3cccc4[nH]cc(c34)C[C@H]2N(C)C1 [LSD, lysergic acid diethylamide] | 82 ± 4.7% | 83 ± 4.7% |  |  | 
CN(C)CCc1c[nH]c2cccc(OP(=O)(O)O)c12 [Psilocybin] | 69 ± 15% | 3.7 ± 22% | not converged |  | 
CN(C)CCc1c[nH]c2cccc(O)c12 [Psilocin] | 69 ± 12% | 45 ± 15% |  | high potency | intermediate potency
NCCc1c[nH]c2ccc(O)cc12 [Serotonin (5HT), 5-hydroxytryptamine] |  | 37 ± 16% |  |  | 
